Data reported in article PMC5041153, “Presumed LRP1-targeting transport peptide delivers β-secretase inhibitor to neurons in vitro with limited efficiency” (Scientific Reports, 2016).
pIC50: −log10 of the molar value. Where a SMILES comes first, the peptide text is derived from it. [ ]: non-standard residue; d: D form. Sta = CC(C)C[C@H](N)[C@@H](O)CC(=O)O

Experiments:
BACE1 = target: T1, BACE1 (Homo sapiens, UniProt P56817); assay: Activity test on human neurons: Aβ38, Aβ40, Aβ42 in supernatant by ELISA; type: cell-based; conditions: 6 h, swAPP SH-SY5Y cells
T1 construct: SH-SY5Y cells overexpressing either Swedish-mutant APP or the isoforms APP695 or APP751 were seeded in 24-well plates; endogenous in cells; host or cells: SH-SY5Y cells overexpressing Swedish-mutant APP (also APP695 or APP751 lines)
T1 sequence (P56817 46-501): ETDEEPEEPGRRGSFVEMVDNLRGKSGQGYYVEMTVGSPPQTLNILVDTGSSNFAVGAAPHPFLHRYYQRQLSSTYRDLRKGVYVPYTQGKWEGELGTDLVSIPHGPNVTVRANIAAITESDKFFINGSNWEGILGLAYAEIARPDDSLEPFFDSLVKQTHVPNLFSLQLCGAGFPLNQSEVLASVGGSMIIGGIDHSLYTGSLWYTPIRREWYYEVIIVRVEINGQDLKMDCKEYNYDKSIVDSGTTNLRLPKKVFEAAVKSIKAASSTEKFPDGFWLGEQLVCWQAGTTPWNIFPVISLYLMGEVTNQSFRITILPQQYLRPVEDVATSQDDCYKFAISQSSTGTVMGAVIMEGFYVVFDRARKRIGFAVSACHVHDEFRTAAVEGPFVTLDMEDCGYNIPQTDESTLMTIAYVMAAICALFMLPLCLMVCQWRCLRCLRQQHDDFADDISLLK
Method: Figure 5 BACE1-inhibitory activity of the bioconjugates. […] The content of Aβ peptides was measured in the cells’ supernatant upon treatment and normalized setting the values of control DMSO-treated cells as 100% (Mean ± SD, n = 3–6). […] GAPDH was used as loading control. (b) Inhibitory activity of the ANG-SI bioconjugate at a range of concentrations (5–100 μM) after 6 h incubation with swAPP cells (Mean ± SD, n = 3–6). *P ≤ 0.05, **P ≤ 0.01, ***P ≤ 0.001, ****P ≤ 0.0001, one-way ANOVA followed by Dunnet test.
Supernatant from the tissue culture plates was then collected in low protein-binding tubes and analyzed by enzyme-linked immunosorbent assay with the Multi-Spot Assay System from Meso Scale Discovery (Rockville, MD) detecting human Aβ38, Aβ40 and Aβ42 peptides (#K15200E,) following manual’s instructions. The values obtained for the different conjugates varied in intensity (Aβ42 ~70,000 RU, Aβ40 ~400,000 RU and Aβ38 ~4,000 RU) and were normalized for the basal Aβ level detected in the supernatant of DMSO-treated cells, which was set as 100%.

wild type SH-SY5Y cells = type: cell-based, human; conditions: 5 μM, continuous exposure over 72 h, RTCA xCELLigence
Method: Figure S7 – Activity of the TAT-SI and TRP-SI bioconjugates on swAPP-overexpressing SH-SY5Y cells. […]
μM in FBS-supplemented medium. Mean ± SD (n=3). **P<0.01 and ****P<0.0001, one-way ANOVA followed […]
Figure S8 – Cytotoxicity of the peptides. Cell growth was monitored over 72 h using wild type SH-SY5Y cells during continuous exposure to the peptides at 5 μM using a Real-Time Cell Analysis (RTCA) xCELLigence system from Roche (Rotkreuz, Switzerland). Briefly, cells were seeded on the E-plates (10,000 cells/well) and after one day the medium was replaced by fresh medium containing the corresponding peptide and the cells were grown for 72 h. Cell growth was monitored with the RTCA system over 72 h during continuous exposure to the peptides at 5 μM. […]

purified BACE1 enzyme = target: T2, purified BACE1 enzyme (Homo sapiens, UniProt P56817); assay: Activity test against purified BACE1 enzyme (cell-free, SensoLyte 520 β-secretase assay kit); type: biochemical; conditions: cell-free assay of purified BACE1; mean of n = 3, except ANG-PEG-SI n = 2; CI 95% printed alongside; read-out: IC50 (concentration at which 50% of relative cleavage was achieved)
T2 construct: purchased AnaSpec (Fremont, CA)
T2 sequence (P56817 46-501): as above
Method: Figure 1 Peptidic bioconjugates and their activity on purified BACE1 enzyme. (a) Scheme of the main bioconjugates used in this study with their corresponding sequences.
A range of concentrations of the different bioconjugates were tested in a cell-free assay of purified BACE1 enzyme using the SensoLyte 520 β–secretase assay kit from AnaSpec (Fremont, CA) following manufacturer’s guidelines.

SH-SY5Y cells = assay: Cellular internalization of TAMRA-labeled peptides by flow cytometry; type: cell-based, human; conditions: FBS-supplemented medium, n = 3
Method: Figure 2 Cellular internalization of peptidic bioconjugates in SH-SY5Y neurons. Mean cell fluorescence intensity was measured by flow cytometry after continuous incubation with the fluorescent TAMRA-labeled bioconjugates in FBS-supplemented medium for increasing time periods. Values were normalized against the fluorescence background of untreated cells and expressed as fold increase. (a) Internalization kinetics of ANG-SI, ANG or SI at 1 μM (mean ± SD, n = 3). (b) Energy-dependence of the internalization of ANG-SI at 37 °C and 4 °C (mean ± SD, n = 3). ***P ≤ 0.001 and ****P ≤ 0.0001, unpaired Student’s t test. (c) Confocal images of cells incubated with ANG-SI, ANG or SI (red) for 1 h. Cells’ perimeter and nuclei have been delineated for reference. Scale bar 10 μm. […]
To study the uptake of the ANG conjugates, cells were incubated with the different fluorescently labeled peptides at 1 μM in FBS-supplemented medium for increasing periods of time, after which they were washed according to previously established protocols[50] and harvested with trypsin for their analysis by flow cytometry. The mean fluorescence values obtained from the analysis were normalized against the background fluorescence of untreated cells and were presented as fold-increase of this intensity. […]

SH-SY5Y wild-type cells = conditions: 30 min pre-treatment, 1 h incubation, flow cytometry, n = 3; for decrease of uptake on treatment with EIPA: 60 μM EIPA, 3 μM peptide or 0.75 mg/mL 70 kDa dextran; for decrease of uptake in the presence of Dynasore: 100 μM Dynasore, serum-free medium, 3 μM peptide or 5 μg/mL transferrin
Method: Cell fluorescence distributions of cells treated with (a) 100 μM Dynasore or (b) 60 μM EIPA. […] Background cell fluorescence of only inhibitor-treated cells is shown (grey). Distributions shown are representative examples of three independent experiments. (c,d) Mean cell fluorescence intensity of the distributions shown in (a) or (b), respectively. The markers transferrin (Trf) and Dextran are shown for reference. (e) Frequency of cells in each of the two subpopulations (Negative or Positive) present upon treatment with ANG, as defined by the gates shown in the fluorescence distribution in (b). Numerical data are represented as mean ± SD (n = 3). *P ≤ 0.05 and **P ≤ 0.01, one-way ANOVA followed by Dunnet test.
For the pharmacological inhibition of endocytosis, we used Dynasore to inhibit clathrin-mediated endocytosis and 5-(N-Ethyl-N-isopropyl)amiloride (EIPA) to block macropinocytosis. […] To verify their inhibitory effects, we used fluorescently labeled human transferrin and 70 kDa dextran, respectively. […] Dynasore-treated cells were washed thrice with acidic wash buffer (0.2 M acetic acid and 0.2 M NaCl) and once with PBS prior to being harvested with trypsin for their analysis by flow cytometry. EIPA-treated cells were washed once with PBS, twice with acetate wash buffer (0.1 M sodium acetate and 0.05 M NaCl, pH 5.5) for 5 min each, and finally once more with PBS prior to being harvested with trypsin for their analysis by flow cytometry.

C[C@@]1(c2cc(-c3cncnc3)c(F)cc2F)CCSC(N)=N1 [LY2811376, reference compound]
decrease of the levels of Aβ peptides 38, 40 and 42 in supernatant (BACE1; 5 μM, FBS-supplemented medium, normalized to DMSO-treated cells = 100%, n = 3–6): > 90%

CC[C@H](C)[C@H](NC(=O)[C@H](CCCCN)NC(=O)[C@H](CCCCN)NC(=O)[C@H](C)NC(=O)[C@H](CC(C)C)NC(=O)[C@H](C)NC(=O)[C@H](C)NC(=O)[C@H](CC(C)C)NC(=O)[C@H](C)NC(=O)[C@H](CCCCN)NC(=O)[C@H](CC(C)C)NC(=O)[C@H](CC(N)=O)NC(=O)[C@@H](NC(=O)[C@H](CCCCN)NC(=O)CNC(=O)[C@H](CC(C)C)NC(=O)[C@H](CC(C)C)NC(=O)[C@H](Cc1ccc(O)cc1)NC(=O)CNC(=O)[C@H](C)NC(=O)[C@H](CO)NC(=O)[C@H](CC(N)=O)NC(=O)[C@H](CC(C)C)NC(=O)[C@@H](NC(=O)[C@H](Cc1c[nH]c2ccccc12)NC(=O)CNC(=O)[C@H](Cc1ccccc1)NC(=O)[C@H](CCC(=O)O)NC(=O)[C@H](C)NC(=O)[C@@H](NC(=O)C[C@H](O)[C@H](CC(C)C)NC(=O)[C@H](CC(N)=O)NC(=O)[C@@H](NC(=O)[C@@H](N)CCC(=O)O)C(C)C)C(C)C)[C@@H](C)O)[C@@H](C)CC)C(=O)N[C@@H](CC(C)C)C(=O)O [TRP-SI] (H-EVN[Sta]VAEFGWTLNSAGYLLGKINLKALAALAKKIL-OH)
cytotoxicity (cell growth) (wild type SH-SY5Y cells): cytotoxic effect

EVN-statine-VAEF-PEG-TFFYGGSRGKRNNFKTEEY [ANG-PEG-SI, ANG and SI joined by an inert poly(ethylene glycol) linker]
pIC50 (purified BACE1 enzyme): 7.06 | effect on Aβ peptide levels (cellular activity) (BACE1; 5 μM, FBS-supplemented medium, normalized to DMSO-treated cells): did not show cellular activity

EVN-statine-VAEFTFFYGGSRGKRNNFKTEEY (N-terminal EVN-statine) [ANG-SI]
decrease in the enzymatic activity of BACE1 (BACE1; concentrations five times higher than 5 μM, n = 3–6): ~ 25% | decrease in the enzymatic activity of BACE1 (BACE1; concentrations twenty times higher than 5 μM, n = 3–6): ~ 60% | internalization into cells (mean cell fluorescence intensity) (SH-SY5Y cells; TAMRA-labeled peptide, 1 μM, up to 5 h continuous incubation, 37 °C): taken up by cells | internalization at 4 °C instead of 37 °C (energy dependence) (SH-SY5Y cells; TAMRA-labeled, 1 h pre-incubation at 4 °C): significantly decreased | decrease of uptake on treatment with EIPA (SH-SY5Y wild-type cells): 50% | decrease of uptake in the presence of Dynasore (SH-SY5Y wild-type cells): 20%

dextran [reference compound]
decrease of uptake on treatment with EIPA (SH-SY5Y wild-type cells): 50%

transferrin: fluorescently labeled human transferrin, clathrin-mediated endocytosis marker [reference compound]
decrease of uptake in the presence of Dynasore (SH-SY5Y wild-type cells): ~ 35%
